How the values were obtained:
A2780 ovarian cells [1] = assay: A2780 Ovarian Cell Proliferation Assay in Lipid Reduced Medium, with Palmitate (control); format: cell-based; settings: Homo sapiens, A2780; lipid reduced medium, 25 μM palmitate, 96 h, MTT; read-out: Proliferation A2780 with Palmitate pIC50 (converted)
In short: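 A2780 cells were seeded in RPMI1640 with 10% FCS, then switched next day to medium with 10% lipid-reduced serum. Compound was added with final 25 μM palmitate, 0.2% fatty-acid-free BSA and 0.2% DMSO, and incubated 96 h at 37 °C. Read-out was MTT absorbance at 544 nm; pIC50 = −log(IC50) from curve fit.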

A2780 ovarian cells [2] = assay: A2780 Ovarian Cell Proliferation Assay in Lipid Reduced Medium, without Palmitate; format: cell-based; settings: Homo sapiens, A2780; lipid reduced medium, without palmitate, 96 h, MTT; read-out: Proliferation A2780 w/o Palmitate pIC50 (converted)
In short: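 A2780 cells were seeded in 10% FCS medium and switched next day to 10% lipid-reduced serum without palmitate. Compounds at 0.01–30 μM were added with 0.2% DMSO, 0.2% fatty-acid-free BSA and 0.25% ethanol final. After 96 h, MTT absorbance at 544 nm was normalized to plate controls, and IC50/pIC50 came from a 4-parameter logistic fit.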

[3] = biological target: T1, FASN Keto-reductase Domain (Homo sapiens, UniProt P49327); assay: Fatty Acid Synthase Keto-Reductase Domain (FASN KR) Inhibition; format: biochemical; settings: mean where tested more than once; read-out: FASN K-R Domain pIC50 (converted)
T1 construct: 10 μL hFASN enzyme (full length, 300 ng, purified in house) and 360 μM NADPH; made in house
In short: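 Full-length human FASN (300 ng) in 100 mM KH2PO4 pH 7.5 with 360 μM NADPH and 180 mM ethyl acetoacetate (stock); A340 decrease read over 20 min at room temperature.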

[4] = biological target: T2, hFASN enzyme (full length) (Homo sapiens, UniProt P49327); assay: Fatty Acid Synthase (FASN) Inhibition Scintillation Proximity Assay; format: biochemical; settings: for IC50: mean where tested more than once, ~ = standard error of pIC50 larger than 0.5; for inhibition at 10 µM: read-out: FASN % Effect @1E−05M
T2 construct: 10 μL hFASN enzyme (full length, 300 ng, purified in house); made in house
In short: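 Purified full-length human FASN (300 ng) incubated 60 min at room temperature with NADPH, [3H]-acetyl-CoA and malonyl-CoA in 100 mM KH2PO4 pH 7.5, 1 mM DTT; compound at 30 μM to 0.01 μM. [3H]-palmitate captured by SPA imaging beads; IC50 from 4-parameter fit, reported as pIC50.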

T2 sequence (P49327 whole entry): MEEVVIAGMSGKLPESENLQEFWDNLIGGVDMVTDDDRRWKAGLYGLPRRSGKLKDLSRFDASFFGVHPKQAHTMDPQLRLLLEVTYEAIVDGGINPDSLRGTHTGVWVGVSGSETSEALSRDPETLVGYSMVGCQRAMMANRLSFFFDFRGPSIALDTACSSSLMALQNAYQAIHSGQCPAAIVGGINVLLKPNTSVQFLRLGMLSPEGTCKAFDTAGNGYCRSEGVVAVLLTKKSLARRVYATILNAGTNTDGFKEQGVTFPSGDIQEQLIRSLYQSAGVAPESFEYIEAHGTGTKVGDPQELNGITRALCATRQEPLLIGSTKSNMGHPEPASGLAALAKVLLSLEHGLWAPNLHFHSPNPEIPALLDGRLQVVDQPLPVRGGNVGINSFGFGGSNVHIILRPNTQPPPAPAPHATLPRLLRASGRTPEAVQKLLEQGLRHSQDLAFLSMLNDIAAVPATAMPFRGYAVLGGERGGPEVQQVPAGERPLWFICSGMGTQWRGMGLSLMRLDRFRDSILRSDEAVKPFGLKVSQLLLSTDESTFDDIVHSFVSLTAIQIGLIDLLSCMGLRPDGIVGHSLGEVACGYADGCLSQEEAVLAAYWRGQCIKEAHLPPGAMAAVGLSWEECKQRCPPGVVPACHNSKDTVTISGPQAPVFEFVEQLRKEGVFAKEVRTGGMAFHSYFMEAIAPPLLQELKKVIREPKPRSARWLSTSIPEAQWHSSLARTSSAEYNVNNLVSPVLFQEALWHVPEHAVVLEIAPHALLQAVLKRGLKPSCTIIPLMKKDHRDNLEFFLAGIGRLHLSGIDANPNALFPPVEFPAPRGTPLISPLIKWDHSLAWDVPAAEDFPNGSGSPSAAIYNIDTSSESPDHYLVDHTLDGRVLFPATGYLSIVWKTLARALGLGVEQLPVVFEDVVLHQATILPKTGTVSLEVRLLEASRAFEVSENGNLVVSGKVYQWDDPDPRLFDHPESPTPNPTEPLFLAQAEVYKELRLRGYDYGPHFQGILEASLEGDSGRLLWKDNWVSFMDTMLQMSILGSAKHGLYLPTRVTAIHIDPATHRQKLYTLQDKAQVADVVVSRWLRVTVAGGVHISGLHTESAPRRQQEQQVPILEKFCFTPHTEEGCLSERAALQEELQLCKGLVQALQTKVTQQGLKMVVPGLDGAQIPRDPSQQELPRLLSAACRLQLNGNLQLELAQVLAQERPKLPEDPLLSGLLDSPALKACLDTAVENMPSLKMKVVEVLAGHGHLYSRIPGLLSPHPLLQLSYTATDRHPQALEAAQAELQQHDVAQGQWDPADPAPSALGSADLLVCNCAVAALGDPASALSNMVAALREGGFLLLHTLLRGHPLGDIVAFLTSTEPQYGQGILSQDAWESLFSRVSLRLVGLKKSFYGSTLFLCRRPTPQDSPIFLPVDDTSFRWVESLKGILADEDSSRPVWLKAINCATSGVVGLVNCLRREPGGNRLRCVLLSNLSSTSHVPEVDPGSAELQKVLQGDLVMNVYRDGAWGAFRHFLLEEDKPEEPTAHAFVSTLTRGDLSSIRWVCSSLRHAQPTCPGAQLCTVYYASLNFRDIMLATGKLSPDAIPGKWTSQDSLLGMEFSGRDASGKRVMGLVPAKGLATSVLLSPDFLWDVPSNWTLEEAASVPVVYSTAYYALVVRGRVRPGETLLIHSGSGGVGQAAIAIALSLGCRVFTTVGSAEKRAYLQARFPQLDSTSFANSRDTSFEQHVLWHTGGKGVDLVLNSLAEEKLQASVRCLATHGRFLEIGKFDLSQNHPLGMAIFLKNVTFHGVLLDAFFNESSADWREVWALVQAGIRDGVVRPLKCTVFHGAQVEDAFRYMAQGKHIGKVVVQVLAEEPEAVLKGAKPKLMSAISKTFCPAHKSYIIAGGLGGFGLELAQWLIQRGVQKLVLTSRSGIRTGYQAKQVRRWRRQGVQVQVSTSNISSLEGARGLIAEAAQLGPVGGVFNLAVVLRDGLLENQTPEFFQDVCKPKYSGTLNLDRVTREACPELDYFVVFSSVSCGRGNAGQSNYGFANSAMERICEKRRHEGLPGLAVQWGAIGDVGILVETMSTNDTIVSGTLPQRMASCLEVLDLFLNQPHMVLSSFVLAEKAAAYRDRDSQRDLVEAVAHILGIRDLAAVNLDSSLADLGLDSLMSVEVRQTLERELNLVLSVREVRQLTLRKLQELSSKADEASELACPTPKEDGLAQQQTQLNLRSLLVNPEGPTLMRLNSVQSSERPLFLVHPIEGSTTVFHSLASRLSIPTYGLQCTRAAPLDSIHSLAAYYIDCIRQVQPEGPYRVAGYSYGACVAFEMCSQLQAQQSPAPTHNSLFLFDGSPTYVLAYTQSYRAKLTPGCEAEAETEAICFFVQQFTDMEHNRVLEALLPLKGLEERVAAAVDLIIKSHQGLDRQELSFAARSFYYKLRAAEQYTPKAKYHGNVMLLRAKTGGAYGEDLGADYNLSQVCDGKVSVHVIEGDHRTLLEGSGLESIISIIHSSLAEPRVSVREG
T1 sequence (P49327 whole entry, the tested form may be a part): as the sequence (P49327 whole entry) above

Row | SMILES | IC50 (A2780 ovarian cells [1]) | IC50 (A2780 ovarian cells [2]) | IC50 [3] | IC50 [4] | inhibition at 10 µM [4]
1 | Cc1ccc(C(=O)N2CCC(c3ccc(-c4cnn(-c5cccnc5)c4)cc3)CC2)cc1NC(=O)c1ccc(NC(C)C)nc1 [Compound 261, 6-(isopropylamino)-N-(2-methyl-5-(4-(4-(1-(pyridin-3-yl)-1H-pyrazol-4-yl)phenyl)piperidine-1-carbonyl)phenyl)nicotinamide] | 3310 nM | 112 nM | 126 nM | 60.3 nM | 107%
2 | Cn1cc(-c2ccc(C3CCN(C(=O)c4ccc(OCc5ccccc5)c(NC(=O)c5ccc(Cl)nc5)c4)CC3)cc2)cn1 [Compound 262, N-(2-(benzyloxy)-5-(4-(4-(1-methyl-1H-pyrazol-4-yl)phenyl)piperidine-1-carbonyl)phenyl)-6-chloronicotinamide] | > 10000 nM | 617 nM | 1050 nM | 263 nM | 89%
3 | Cc1ccc(C(=O)N2CCC(c3ccc(-c4cnn(C)c4)cn3)CC2)cc1NC(=O)c1ccc(Cl)nc1 [Compound 263, 6-chloro-N-(2-methyl-5-(4-(5-(1-methyl-1H-pyrazol-4-yl)pyridin-2-yl)piperidine-1-carbonyl)phenyl)nicotinamide] | > 10000 nM | 170 nM | 479 nM | 91.2 nM | 111%
4 | Cc1ccc(C(=O)N2CCC(c3ccc(-c4cnn(C)c4)cn3)CC2)cc1NC(=O)c1ccc(NC(C)C)nc1 [Compound 264, 6-(isopropylamino)-N-(2-methyl-5-(4-(5-(1-methyl-1H-pyrazol-4-yl)pyridin-2-yl)piperidine-1-carbonyl)phenyl)nicotinamide] | > 10000 nM | 87.1 nM | 219 nM | 58.9 nM | 109%
5 | Cc1ccc(C(=O)N2CC(c3ccc(-c4ccncc4N)cc3)C2)cc1NC(=O)c1ccc(N2CCOCC2)nc1 [Compound 265, N-(5-(3-(4-(3-aminopyridin-4-yl)phenyl)azetidine-1-carbonyl)-2-methylphenyl)-6-morpholinonicotinamide] | > 10000 nM | 20.9 nM | 60.3 nM | 21.9 nM | 110%
6 | Cc1ccc(C(=O)N2CC(c3ccc(-c4ccncc4N)cc3)C2)cc1NC(=O)c1ccc(Cl)nc1 [Compound 266, N-(5-(3-(4-(3-aminopyridin-4-yl)phenyl)azetidine-1-carbonyl)-2-methylphenyl)-6-chloronicotinamide] | > 10000 nM | ~41.7 nM | 107 nM | 38 nM | 112%
7 | Cc1ccc(C(=O)N2CCC(c3ccc(-c4cnn(CCO)c4)cc3)CC2)cc1NC(=O)c1ccc(NC(C)C)nc1 [Compound 267, N-(5-(4-(4-(1-(2-hydroxyethyl)-1H-pyrazol-4-yl)phenyl)piperidine-1-carbonyl)-2-methylphenyl)-6-(isopropylamino)nicotinamide] | > 10000 nM | ~22.4 nM | 58.9 nM | 25.7 nM | 112%
8 | Cc1ccc(C(=O)N2CCC(c3ccc(-c4cnn(C)c4)nc3)CC2)cc1NC(=O)c1ccc(NC(C)C)nc1 [Compound 268, 6-(isopropylamino)-N-(2-methyl-5-(4-(6-(1-methyl-1H-pyrazol-4-yl)pyridin-3-yl)piperidine-1-carbonyl)phenyl)nicotinamide] | > 10000 nM | 537 nM | 1350 nM | 166 nM | 104%
9 | CC(C)Nc1ccc(C(=O)Nc2cc(C(=O)N3CCC(c4ccc(-c5cnn(C)c5)cc4)CC3)ccc2O)cn1 [Compound 269, N-(2-hydroxy-5-(4-(4-(1-methyl-1H-pyrazol-4-yl)phenyl)piperidine-1-carbonyl)phenyl)-6-(isopropylamino)nicotinamide] | 7240 nM | 316 nM | 257 nM | 69.2 nM | 107%
10 | Cc1ccc(C(=O)N2CCC(c3ccc(-c4cnn(C)c4)nc3)CC2)cc1NC(=O)c1ccc(Cl)nc1 [Compound 270, 6-chloro-N-(2-methyl-5-(4-(6-(1-methyl-1H-pyrazol-4-yl)pyridin-3-yl)piperidine-1-carbonyl)phenyl)nicotinamide] | > 10000 nM | 1480 nM | 2750 nM | 589 nM | 93%
11 | CC(C)Nc1ccc(C(=O)Nc2cc(C(=O)N3CCC(c4ccc(-c5cnn(C)c5)cc4)CC3)ccc2OCc2ccccc2)cn1 [Compound 271, N-(2-(benzyloxy)-5-(4-(4-(1-methyl-1H-pyrazol-4-yl)phenyl)piperidine-1-carbonyl)phenyl)-6-(isopropylamino)nicotinamide] | > 10000 nM | 490 nM | 537 nM | 100 nM | 101%
12 | Cc1ccc(C(=O)N2CCC(c3ccc(-c4cnn(-c5ccncc5)c4)cc3)CC2)cc1NC(=O)c1ccc(NC(C)C)nc1 [Compound 272, 6-(isopropylamino)-N-(2-methyl-5-(4-(4-(1-(pyridin-4-yl)-1H-pyrazol-4-yl)phenyl)piperidine-1-carbonyl)phenyl)nicotinamide] | 1380 nM | 43.7 nM | 105 nM | 29.5 nM | 112%
13 | Cc1ccc(C(=O)N2CCC(c3ccc(-n4ccnc4)cc3)C(C)(C)C2)cc1NC(=O)c1ccc(Cl)nc1 (stereo not shown) [Compound #6, N-(5-(4-(4-(1H-imidazol-1-yl)phenyl)-3,3-dimethylpiperidine-1-carbonyl)-2-methylphenyl)-6-chloronicotinamide] | > 10000 nM | 234 nM | 89.1 nM | 61.7 nM | 104%
14 | Cc1ccc(C(=O)N2CCC(c3ccc(-n4ccnc4)cc3)CC2)cc1NC(=O)c1ccc(Cl)nc1 [Compound #11, N-(5-(4-(4-(1H-imidazol-1-yl)phenyl)piperidine-1-carbonyl)-2-methylphenyl)-6-chloronicotinamide] | > 10000 nM | 56.2 nM | 49 nM | 27.5 nM | 106%
15 | Cc1ccc(C(=O)N2CCC(c3ccc(-n4ccnc4)cc3)CC2)cc1NC(=O)c1ccc(NC(C)C)nc1 [Compound #15, N-(5-(4-(4-(1H-imidazol-1-yl)phenyl)piperidine-1-carbonyl)-2-methylphenyl)-6-(isopropylamino)nicotinamide] | > 15100 nM | ~47.9 nM | 37.2 nM | 22.9 nM | 109%
16 | Cc1ccc(C(=O)N2CC(c3ccc(-c4ccc5cnn(C)c5c4)cc3)C2)cc1NC(=O)c1ccc(NC(C)C)nc1 [Compound #36, 6-(isopropylamino)-N-(2-methyl-5-(3-(4-(1-methyl-1H-indazol-6-yl)phenyl)azetidine-1-carbonyl)phenyl)nicotinamide] | 2190 nM | ~74.1 nM | 27.5 nM | 43.7 nM | 106%
17 | Cc1ccc(C(=O)N2CCC(c3ccc(-n4ccnc4)cc3)C(C)(C)C2)cc1NC(=O)c1ccc(NC(C)C)nc1 (stereo not shown) [Compound #43, N-(5-(4-(4-(1H-imidazol-1-yl)phenyl)-3,3-dimethylpiperidine-1-carbonyl)-2-methylphenyl)-6-(isopropylamino)nicotinamide] | > 10000 nM | 132 nM | 69.2 nM | 44.7 nM | 106%
18 | CC(C)Nc1ccc(C(=O)Nc2cc(C(=O)N3CC(c4ccc(-c5cccnc5)cc4)C3)ccc2Cl)cn1 [Compound #73, N-(2-chloro-5-(3-(4-(pyridin-3-yl)phenyl)azetidine-1-carbonyl)phenyl)-6-(isopropylamino)nicotinamide] | 13500 nM | 148 nM | 85.1 nM | 32.4 nM | 93%
19 | CC(C)Nc1ccc(C(=O)Nc2cc(C(=O)N3CC(c4ccc(-c5ccncc5)cc4)C3)ccc2Cl)cn1 [Compound #74, N-(2-chloro-5-(3-(4-(pyridin-4-yl)phenyl)azetidine-1-carbonyl)phenyl)-6-(isopropylamino)nicotinamide] | 2190 nM | 61.7 nM | 45.7 nM | 17.4 nM | 107%
20 | CC(C)Nc1ccc(C(=O)Nc2cc(C(=O)N3CC(c4ccc(-c5ccc6cnccc6c5)cc4)C3)ccc2Cl)cn1 [Compound #75, N-(2-chloro-5-(3-(4-(isoquinolin-6-yl)phenyl)azetidine-1-carbonyl)phenyl)-6-(isopropylamino)nicotinamide] | > 15100 nM | 135 nM | 55 nM | 53.7 nM | 92%
